Measured values published in patent publication US8716231B2, “Use of benzo-fused heterocycle sulfamide derivatives for the treatment of pain” (Janssen Pharmaceutica NV, priority 2005, dated 2014).
Where “and” joins values, the source holds several entries; their conditions need not be identical. Equal values may be shown once.

How the values were obtained:
Type in all cases: in vivo, Sprague-Dawley rats
[1] = test system: spontaneous locomotor activity; assay: Taxol Induced Peripheral Neuropathy Model (pilot), Open Field testing; settings: 100 mg/kg po daily + Taxol, Day 11
[2] = test system: Taxol®-induced degeneration of sciatic nerve and right hind paw; assay: Taxol Induced Peripheral Neuropathy Model (pilot), histopathology; settings: 100 mg/kg po daily + Taxol; Day 13
Method: The animals were housed in polycarbonate plastic cages, 2 animals per cage, at a temperature of 18-26° C., 30-70% humidity, 12-hour light/dark cycle, with food and water available ad libityum.
On days 1, 3, 5, and 7, the rats received an ip (intraperitoneal) injection of Taxol® (2 mg/kg).
On Day 13, the animals were euthanized by carbon dioxide asphyxiation. The sciatic nerve and right hind paw were excised and placed in 10% neutral buffered formalin. The harvested tissues were blocked, embedded in paraffin, sectioned and stained with hemotoxylin and eosin. The tissue was examined using light microscopy and scored by an evaluator blind to the treatment regimen. The tissue was ranked on a scale of 0 to 3 based on the degree and amount of axonal disruption observed in the section, with 0 being a normal appearance of the axon, 1 to 2 being a mild to moderate disruption of the axons and a 3 being a complete disruption and Wallerian degeneration of the axons (Cavaletti, G, Tredici, G, Braga, M, Tazzari, S. Experimental peripheral neuropathy induced in adult rats by repeated intraperitoneal administration of Taxol®. Exper Neurol 133:64-72,1995). Data were analyzed using one-way ANOVA and Dunnett's test, with statistical significance at p<0.05.

[3] = test system: tactile allodynia in L5 SNL rats (von Frey withdrawal threshold); assay: Lumbar 5 (L5) Spinal Nerve Ligation (Chung) Model of Neuropathic Pain, Studies A-D; settings: for withdrawal thresholds: 2 hrs, 4 hrs and 6 hrs after oral administration
Description: The rat Chung model is an assay used in determining whether a compound is useful for the treatment of neuropathic pain (Kim and Chung, 1994; Chaplan et al., 1994). In this assay, injury to the sciatic nerve by loose ligation with chromic gut suture, tight ligation of the L5 spinal nerve with silk suture or partial tight ligation with silk suture each produces hypersensitivity to many stimulus modalities (e.g., touch, pressure, temperature) that lasts for weeks or months. Hypersensitivity produced by such injuries is reminiscent of allodynia and hyperalgesia observed in clinical conditions of neuropathic pain caused by mechanical nerve injury, diabetes and chemotherapy. This assay is predictive of analgesic, antiallodynic and/or antihyperalgesic effect of test compounds.
Test compound and controls were dissolved in the appropriate volume of 0.5% HPMC or 10% solutol in 0.5% hydoxypropyl methylcellulose (HPMC). HPMC served as the vehicle for preparation of gabapentin solutions used as the positive control. Solutions were prepared to provide the final dose in a volume of 2.5 mL/kg or 5 mL/kg p.o. for rats. Male, Sprague-Dawley rats from Harlan Industries (Indianapolis, Ind.), weighing 150 to 250 grams at the time of surgery, were used for L5 SNL studies.
Rats in the SNL studies were housed and tested in the same room. Animals were housed in micro-isolator cages in groups of four rats per cage or 5 mice per cage with corncob bedding and free access to food and water. The environment was maintained at a constant temperature of 21° C., with a 12-hour light/dark cycle. Rats undergoing L5 SNL surgery were placed into individual housing cages with alpha dry bedding and had access to enrichment food, food pellets and water ad libitum. Animals were allowed four to six weeks recovery from surgery prior to testing and were not tested beyond eight weeks post-surgery. For L5 SNL testing, only those animals that responded to less than 4 gr force were included in further testing and analysis, being randomized into treatment groups on the day of study. In all tests, the investigator performing the behavioral analysis was blinded to the treatment administered to any individual animal.
For L5 SNL surgery, rats were induced and maintained on isoflurane inhalation anesthesia. A 2-cm skin incision was made just left of midline over the dorsal aspect of the L4-S2 spinal segments, followed by separation of the paraspinal muscles from spinous processes. The transverse process of L6 was then carefully removed and the L5 spinal nerve was identified. The left L5 spinal nerve was then ligated tightly with 6-0 silk thread, the muscle was sutured with 4-0 vicryl, and the skin was closed with wound clips.
Behavioral testing was performed on L5SNL rats at a time between 3-6 weeks post-ligation. […] Tactile allodynia was quantified at 30 min, 1 hr, 2 hrs, 4 hrs, 6 hrs, 8 hrs and/or 24 hr post-dosing by recording the force at which the paw ipsilateral to the nerve ligation was withdrawn from the application of a series of calibrated von Frey filaments (0.4, 0.7, 1.2, 2.0, 3.6, 5.5, 8.5 and 15.1 g; Stoelting; Wood Dale, Ill.). Beginning at an intermediate stiffness (2.0 g), filaments were applied to the mid-plantar hind paw for approximately 5 seconds. A brisk paw withdrawal led to the presentation of the next lighter stimulus and the lack of a withdrawal response led to the presentation of the next stronger stimulus to determine the response threshold. A total of four responses after the first threshold detection were collected. The 50% withdrawal thresholds were interpolated by the method of Dixon (as described in Meert T F and Vermeirsch, H A, Pharmacol. Biochem. Behav.; 2005, 80(2), pp 309-326) and when response thresholds fell above or below the range of detection, respective values of 15.0 or 0.25 g were assigned. […]

Row | SMILES | vertical rearing (Open Field) ([1]; p<0.05) | horizontal movement (Open Field) ([1]; vs Taxol alone) | degeneration in the sciatic nerve (histopathology) [2] | severity of degeneration in the right hind paw (histopathology) [2] | % reversal (withdrawal threshold) ([3]; Study A, 120 mg/kg oral, 1 hr) [%] | % reversal (withdrawal threshold) ([3]; Study A, 120 mg/kg oral, 4 hrs) [%] | % change (withdrawal threshold) ([3]; Study A, 240 mg/kg, 4 hr) [%] | withdrawal thresholds ([3]; Study A) | reversal in tactile hypersensitivity, peak effect ([3]; Study B, first administration (Day 1), 480 mg/kg, 4 hrs after dosing, three weeks after surgery) [%] | reversal in tactile hypersensitivity ([3]; Study B, first administration, other treatment groups (60, 120, 240 mg/kg)) | reversal of tactile hypersensitivity ([3]; Study B, third and seventh day of daily dosing, 60-480 mg/kg) | effect on mechanical allodynia ([3]; Study C, 100 mg/kg, 300 mg/kg or 560 mg/kg, p.o., 4 weeks after surgery) | decrease in mechanical allodynia ([3]; Study D, 560 mg/kg p.o. in 10% solutol in HPMC, four weeks after surgery) | % reversal (withdrawal threshold) ([3]; Study A, 480 mg/kg, 2 hrs post-dosing, six weeks after surgery) [%] | % reversal (withdrawal threshold) ([3]; Study A, 480 mg/kg, 4 hrs post-dosing, six weeks after surgery, 480 mg/kg) | % reversal of mechanical allodynia relative to baseline ([3]; Study C, 560 mg/kg, 2 hrs post dosing) [%] | % reversal of mechanical allodynia relative to baseline ([3]; Study C, 560 mg/kg, 4 hrs post dosing) [%] | decrease in mechanical allodynia relative to baseline ([3]; Study C, 560 mg/kg, 6 hrs post dosing)
1 | NS(=O)(=O)NC[C@H]1COc2cc(Cl)ccc2O1 [Compound #8, (2S)-(−)-N-(6-Chloro-2,3-dihydro-benzo[1,4]dioxin-2-ylmethyl)-sulfamide] | decreased vertical rearing compared to Taxol® alone | no difference between treatment groups | positive trend to decreased degeneration in the sciatic nerve, although the differences were not statistically significant | no effect on the severity of Taxol®-induced degeneration in the right hind paw | 42.2±13.8 | 45.4±12.2 | 65.6±21.1 | significantly increased withdrawal thresholds | 64.3±9.9 | No significant differences were observed | none of the treatment groups exhibited a significant reversal of tactile hypersensitivity | did not show a statistically significant effect up to 6 hrs | showed a decrease in mechanical allodynia at 4 hrs and 6 hrs post dosing, but with a p=0.054 |  |  |  |  | 
2 | NCC1(CC(=O)O)CCCCC1 [gabapentin, reference compound] |  |  |  |  |  |  |  | significantly increased withdrawal thresholds |  |  |  |  |  | 73.2±14.7 | 73.7±16.6% and 73.4±15.2% | 58.7 | 86.4 | not at 6 hrs post dosing
